Results reported in ChEMBL document CHEMBL1909046, “DrugMatrix in vitro pharmacology data”.

Experiments:
[1] = target: 5-hydroxytryptamine receptor 4 (Cavia porcellus, UniProt O70528); type: cell membranes, Dunkin-Hartley, Striatum, Membrane; note: in other assays of this panel Not Active means under 50% inhibition at 10 µM
[2] = target: T1, C-C chemokine receptor type 4 (Homo sapiens, UniProt P51679); type: cell membranes, Membrane; conditions: chem-1; note: in other assays of this panel Not Active means under 50% inhibition at 10 µM
T1 sequence (P51679 whole entry): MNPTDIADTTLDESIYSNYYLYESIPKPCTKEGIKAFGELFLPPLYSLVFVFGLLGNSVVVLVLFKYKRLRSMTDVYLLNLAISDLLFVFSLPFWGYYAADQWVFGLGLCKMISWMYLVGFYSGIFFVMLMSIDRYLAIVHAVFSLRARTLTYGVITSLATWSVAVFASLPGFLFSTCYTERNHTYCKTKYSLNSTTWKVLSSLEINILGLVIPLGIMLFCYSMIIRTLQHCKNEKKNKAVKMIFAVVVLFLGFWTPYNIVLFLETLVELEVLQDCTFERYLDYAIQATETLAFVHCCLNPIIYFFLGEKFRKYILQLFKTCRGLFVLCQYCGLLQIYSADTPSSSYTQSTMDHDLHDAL

[3] = target: C-C chemokine receptor type 5 (Homo sapiens, UniProt P51681); type: cell membranes, HEK293, Membrane; note: in other assays of this panel Not Active means under 50% inhibition at 10 µM
Chain of C-C chemokine receptor type 5 (P51681 whole entry): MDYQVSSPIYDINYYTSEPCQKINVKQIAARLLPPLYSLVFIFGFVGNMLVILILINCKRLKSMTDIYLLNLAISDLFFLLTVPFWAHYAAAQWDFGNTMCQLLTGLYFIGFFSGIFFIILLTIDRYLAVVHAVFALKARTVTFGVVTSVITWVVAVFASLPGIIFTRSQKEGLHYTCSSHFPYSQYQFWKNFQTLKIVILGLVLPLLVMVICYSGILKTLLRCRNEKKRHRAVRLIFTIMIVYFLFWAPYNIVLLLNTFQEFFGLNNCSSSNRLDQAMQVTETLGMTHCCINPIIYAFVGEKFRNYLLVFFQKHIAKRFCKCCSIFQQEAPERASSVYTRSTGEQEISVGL

[4] = target: Prostaglandin G/H synthase 1 (Homo sapiens, UniProt P23219); experiment: biochemical; type: tissue-based, Platelet; conditions: platelet;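 note: inhibition of COX-1 enzyme activity, with arachidonic acid supplied as substrate; in other assays of this panel Not Active means under 50% inhibition at 10 µM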
Chain of Prostaglandin G/H synthase 1 (P23219 whole entry): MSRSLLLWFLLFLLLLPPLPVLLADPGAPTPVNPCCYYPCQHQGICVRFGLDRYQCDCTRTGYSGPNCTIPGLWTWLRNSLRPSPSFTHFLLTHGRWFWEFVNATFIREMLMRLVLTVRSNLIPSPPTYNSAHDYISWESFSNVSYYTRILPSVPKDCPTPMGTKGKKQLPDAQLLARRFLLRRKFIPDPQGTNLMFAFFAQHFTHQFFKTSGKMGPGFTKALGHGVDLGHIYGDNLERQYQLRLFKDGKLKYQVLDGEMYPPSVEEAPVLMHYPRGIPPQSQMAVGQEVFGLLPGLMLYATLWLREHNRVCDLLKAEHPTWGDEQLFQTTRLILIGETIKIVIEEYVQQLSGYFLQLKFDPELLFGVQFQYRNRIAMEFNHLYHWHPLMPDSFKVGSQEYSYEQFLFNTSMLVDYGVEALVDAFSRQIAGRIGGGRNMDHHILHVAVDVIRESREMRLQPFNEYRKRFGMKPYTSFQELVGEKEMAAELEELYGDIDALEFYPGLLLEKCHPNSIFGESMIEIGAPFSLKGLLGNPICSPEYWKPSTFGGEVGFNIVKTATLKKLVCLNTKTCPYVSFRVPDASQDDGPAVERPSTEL

[5] = DRUGMATRIX: Glutamate, NMDA, Phencyclidine radioligand binding (ligand: [3H] TCP); type: cell membranes, Rattus norvegicus, Wistar, Cerebral cortex, Membrane; conditions: Not Active = under 50% inhibition at 10 µM
Leukotriene C4 synthase = target: T2, Leukotriene C4 synthase (Cavia porcellus, UniProt A6XA80); type: tissue-based, Lung
T2 sequence (A6XA80 whole entry): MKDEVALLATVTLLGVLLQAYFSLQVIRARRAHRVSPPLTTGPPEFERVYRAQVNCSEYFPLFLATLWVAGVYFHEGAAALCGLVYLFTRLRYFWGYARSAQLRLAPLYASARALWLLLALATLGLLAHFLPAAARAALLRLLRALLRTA

[6] = DRUGMATRIX: Phorbol Ester radioligand binding (ligand: [3H] PDBu); type: cell membranes, Mus musculus, ICR, Brain, Membrane; conditions: Not Active = under 50% inhibition at 10 µM
[7] = DRUGMATRIX: Phosphodiesterase PDE3 enzyme inhibition (substrate: [3H]cAMP + cAMP); type: tissue-based, Homo sapiens; conditions: platelet; Not Active = under 50% inhibition at 10 µM
Neutrophil elastase = target: T3, Neutrophil elastase (Homo sapiens, UniProt P08246); type: tissue-based
T3 sequence (P08246 whole entry): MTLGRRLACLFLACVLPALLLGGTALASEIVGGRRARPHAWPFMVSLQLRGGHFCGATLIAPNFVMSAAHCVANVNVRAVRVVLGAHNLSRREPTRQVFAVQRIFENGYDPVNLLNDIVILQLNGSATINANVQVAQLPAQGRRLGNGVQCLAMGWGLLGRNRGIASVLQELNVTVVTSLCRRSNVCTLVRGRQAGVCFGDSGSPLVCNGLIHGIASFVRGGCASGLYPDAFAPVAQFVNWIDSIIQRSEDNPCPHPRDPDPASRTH

Adenosine receptor A1 = target: T4, Adenosine receptor A1 (Homo sapiens, UniProt P30542); type: cell membranes, Membrane; conditions: cho
T4 sequence (P30542 whole entry): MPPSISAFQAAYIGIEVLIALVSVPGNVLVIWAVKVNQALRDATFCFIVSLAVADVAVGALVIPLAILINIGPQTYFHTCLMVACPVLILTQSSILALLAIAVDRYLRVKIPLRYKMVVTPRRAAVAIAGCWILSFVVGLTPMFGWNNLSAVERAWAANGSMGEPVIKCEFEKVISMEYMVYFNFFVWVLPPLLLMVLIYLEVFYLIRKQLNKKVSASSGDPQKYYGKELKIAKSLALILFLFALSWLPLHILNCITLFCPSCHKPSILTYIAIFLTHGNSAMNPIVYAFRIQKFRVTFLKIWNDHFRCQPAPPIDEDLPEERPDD

Cytochrome P450 2C19 = Cytochrome P450 2C19 (Homo sapiens, UniProt P33261); conditions: bti-tn-5b1-4; note: in other assays of this panel Not Active means under 50% inhibition at 10 µM
Chain of Cytochrome P450 2C19 (P33261 whole entry): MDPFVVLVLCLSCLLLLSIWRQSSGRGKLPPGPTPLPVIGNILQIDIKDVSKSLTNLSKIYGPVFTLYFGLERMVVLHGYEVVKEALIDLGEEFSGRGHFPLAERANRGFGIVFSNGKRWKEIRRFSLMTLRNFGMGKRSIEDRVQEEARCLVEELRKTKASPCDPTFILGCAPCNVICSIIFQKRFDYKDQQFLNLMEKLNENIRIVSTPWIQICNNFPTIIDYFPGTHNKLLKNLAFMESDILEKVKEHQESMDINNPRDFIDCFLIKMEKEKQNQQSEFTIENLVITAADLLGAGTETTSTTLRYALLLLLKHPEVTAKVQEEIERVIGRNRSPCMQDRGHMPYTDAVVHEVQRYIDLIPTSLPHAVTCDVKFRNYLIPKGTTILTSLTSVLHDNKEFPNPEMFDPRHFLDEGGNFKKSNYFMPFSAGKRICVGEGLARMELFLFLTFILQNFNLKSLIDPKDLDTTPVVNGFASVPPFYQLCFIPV

Glucocorticoid receptor = target: T5, Glucocorticoid receptor (Homo sapiens, UniProt P04150); conditions: hela s3; note: in other assays of this panel Not Active means under 50% inhibition at 10 µM
T5 sequence (P04150 whole entry): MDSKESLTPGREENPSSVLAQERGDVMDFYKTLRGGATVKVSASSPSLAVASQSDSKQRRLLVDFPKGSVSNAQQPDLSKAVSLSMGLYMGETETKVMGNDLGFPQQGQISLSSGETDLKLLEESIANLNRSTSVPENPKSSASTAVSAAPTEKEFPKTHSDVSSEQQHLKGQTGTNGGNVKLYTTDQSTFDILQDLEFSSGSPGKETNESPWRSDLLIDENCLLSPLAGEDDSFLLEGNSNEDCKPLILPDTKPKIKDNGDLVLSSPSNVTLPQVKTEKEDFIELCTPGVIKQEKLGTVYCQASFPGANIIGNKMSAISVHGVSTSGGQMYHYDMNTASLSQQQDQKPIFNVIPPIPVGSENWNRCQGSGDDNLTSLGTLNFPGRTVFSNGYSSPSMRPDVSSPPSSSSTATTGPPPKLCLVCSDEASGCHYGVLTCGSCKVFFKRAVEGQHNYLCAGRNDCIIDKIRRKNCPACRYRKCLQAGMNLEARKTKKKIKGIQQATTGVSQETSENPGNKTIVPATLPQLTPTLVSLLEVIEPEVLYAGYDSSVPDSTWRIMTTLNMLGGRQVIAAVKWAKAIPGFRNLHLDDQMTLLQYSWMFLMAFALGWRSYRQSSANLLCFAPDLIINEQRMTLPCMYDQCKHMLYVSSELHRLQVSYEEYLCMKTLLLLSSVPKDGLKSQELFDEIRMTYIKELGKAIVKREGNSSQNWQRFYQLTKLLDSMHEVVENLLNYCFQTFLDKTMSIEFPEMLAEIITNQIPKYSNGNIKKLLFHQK

Chain of 5-hydroxytryptamine receptor 4 (O70528 whole entry): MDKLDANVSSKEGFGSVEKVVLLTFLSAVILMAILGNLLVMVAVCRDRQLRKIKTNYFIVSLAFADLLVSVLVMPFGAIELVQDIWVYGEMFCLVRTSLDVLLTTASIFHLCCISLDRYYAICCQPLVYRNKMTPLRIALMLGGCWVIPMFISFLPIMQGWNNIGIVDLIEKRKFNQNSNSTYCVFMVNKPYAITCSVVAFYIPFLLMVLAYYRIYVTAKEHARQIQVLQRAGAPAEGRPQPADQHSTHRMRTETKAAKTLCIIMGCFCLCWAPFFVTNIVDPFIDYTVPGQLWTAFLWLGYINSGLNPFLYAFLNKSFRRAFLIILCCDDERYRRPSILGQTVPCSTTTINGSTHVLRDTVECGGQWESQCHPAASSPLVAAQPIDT

Compound	IC50 [1]	IC50 [2]	IC50 ([3]; read-out: IC50)	Ki ([3]; read-out: Ki)	IC50 [4]	IC50 [5]	Ki [5]	IC50 (Leukotriene C4 synthase)	IC50 [6]	Ki [6]	IC50 [7]	Ki [7]	IC50 (Neutrophil elastase)	IC50 (Adenosine receptor A1)	IC50 (Cytochrome P450 2C19)	Ki (Cytochrome P450 2C19)	IC50 (Glucocorticoid receptor)	IC50 ([3]; hek293)
CC(C)(C)c1ccc(C(O)CCCN2CCC(C(O)(c3ccccc3)c3ccccc3)CC2)cc1 (configuration not stated) [TERFENADINE]	Not Active	Not Active	1100 nM	852 nM	Not Active	Not Active	Not Active	Not Active	Not Active	Not Active	Not Active	Not Active	Not Active	Not Active	Not Active	Not Active	Not Active	–
O=C1CCC(N2C(=O)c3ccccc3C2=O)C(=O)N1 (configuration not stated) [THALIDOMIDE]	Not Active	Not Active	–	–	Not Active	Not Active	Not Active	Not Active	Not Active	Not Active	Not Active	Not Active	Not Active	Not Active	Not Active	Not Active	Not Active	Not Active
Cc1cccc(Nc2ccncc2S(=O)(=O)NC(=O)NC(C)C)c1 [TORSEMIDE]	Not Active	Not Active	–	–	Not Active	Not Active	Not Active	Not Active	Not Active	Not Active	Not Active	Not Active	Not Active	Not Active	Not Active	Not Active	Not Active	Not Active
CC(C)C[C@H](NC(=O)[C@@H](O)[C@H](N)Cc1ccccc1)C(=O)O [UBENIMEX]	Not Active	Not Active	–	–	Not Active	Not Active	Not Active	Not Active	Not Active	Not Active	Not Active	Not Active	Not Active	Not Active	Not Active	Not Active	Not Active	Not Active
Cc1onc(-c2ccccc2)c1-c1ccc(S(N)(=O)=O)cc1 [VALDECOXIB]	Not Active	Not Active	–	–	Not Active	Not Active	Not Active	Not Active	Not Active	Not Active	Not Active	Not Active	Not Active	Not Active	Not Active	Not Active	Not Active	Not Active
[Cl-].[Cl-].[Zn+2] [ZINC CHLORIDE]	Not Active	Not Active	–	–	Not Active	Not Active	Not Active	Not Active	Not Active	Not Active	Not Active	Not Active	Not Active	Not Active	Not Active	Not Active	Not Active	Not Active
